The text below walks through data of patent publication US12570695B2, “Bicyclic peptide ligands specific for EphA2” (priority 2019, dated 2026).

The structures appear in SMILES notation. Starred links: 1 amine or outer side, 2 acyl side, 3 side chain; linkers in the order of their positions; H or OH if unused. Positions of bridges follow the written chain, without caps; N, C: chain ends. Non-standard residues stand in square brackets, D forms with d. Residues, ends and D or L forms follow the SMILES beside them. TATA = O=C(CC[*:1])N1CN(C(=O)CC[*:2])CN(C(=O)CC[*:3])C1; Dip = N[C@H](C(=O)O)C(c1ccccc1)c1ccccc1; 1Nal = N[C@@H](Cc1cccc2ccccc12)C(=O)O; Hyp = O=C(O)[C@@H]1C[C@@H](O)CN1; hArg = N=C(N)NCCCC[C@H](N)C(=O)O; 2Thi = N[C@@H](Cc1cccs1)C(=O)O; Aad = N[C@@H](CCCC(=O)O)C(=O)O; Cba = N[C@@H](CC1CCC1)C(=O)O; NMeA = CN[C@@H](C)C(=O)O; Mpa = O=C(O)CCS

For this assay, the target named is human EphA2 (Homo sapiens, UniProt P29317). Put plainly: biochemical.
Chain of human EphA2 (P29317 24-976): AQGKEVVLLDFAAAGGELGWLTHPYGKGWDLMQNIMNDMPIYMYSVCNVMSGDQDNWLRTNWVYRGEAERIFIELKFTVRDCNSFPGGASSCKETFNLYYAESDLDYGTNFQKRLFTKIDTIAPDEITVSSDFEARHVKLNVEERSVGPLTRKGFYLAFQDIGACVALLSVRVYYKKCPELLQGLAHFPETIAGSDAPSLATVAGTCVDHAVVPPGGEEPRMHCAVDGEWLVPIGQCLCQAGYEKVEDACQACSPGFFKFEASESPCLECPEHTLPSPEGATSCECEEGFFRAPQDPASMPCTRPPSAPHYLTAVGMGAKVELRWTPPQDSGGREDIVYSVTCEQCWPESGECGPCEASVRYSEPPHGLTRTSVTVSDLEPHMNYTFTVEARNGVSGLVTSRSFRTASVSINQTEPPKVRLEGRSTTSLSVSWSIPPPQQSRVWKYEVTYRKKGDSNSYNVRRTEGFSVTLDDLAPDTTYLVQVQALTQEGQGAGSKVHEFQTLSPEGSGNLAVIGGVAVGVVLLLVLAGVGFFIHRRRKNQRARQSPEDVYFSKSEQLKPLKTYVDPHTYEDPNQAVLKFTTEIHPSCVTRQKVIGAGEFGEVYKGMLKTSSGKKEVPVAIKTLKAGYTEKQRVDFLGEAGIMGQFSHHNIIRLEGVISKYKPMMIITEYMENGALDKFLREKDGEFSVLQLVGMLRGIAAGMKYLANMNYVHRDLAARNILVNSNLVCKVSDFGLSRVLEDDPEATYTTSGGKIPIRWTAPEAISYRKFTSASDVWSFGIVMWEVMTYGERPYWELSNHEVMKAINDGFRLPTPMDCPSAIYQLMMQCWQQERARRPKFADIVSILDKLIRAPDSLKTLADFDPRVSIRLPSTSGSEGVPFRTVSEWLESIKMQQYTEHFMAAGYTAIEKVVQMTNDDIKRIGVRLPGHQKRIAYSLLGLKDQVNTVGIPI
Procedure: Peptides without a fluorescent tag were tested in competition with a peptide with a fluorescent tag and a known Kd.
Peptides were diluted to an appropriate concentration in assay buffer as described in the direct binding assay with a maximum of 5% DMSO, then serially diluted 1 in 2. […] Measurements were conducted, however the gain was determined prior to the first measurement. Data analysis was in Systat Sigmaplot version 12.0 where the mP values were fit to a user defined cubic equation to generate a Ki value:
“Lig”, “KLig” and “Prot” were all defined values relating to: fluorescent peptide concentration, the Kd of the fluorescent peptide and EphA2 concentration respectively.
One may read the Ki as a measure of affinity in units of concentration, obtained from inhibition or displacement. A higher Ki goes with lower affinity. The molecule `CC(C)C[C@@H]1NC(=O)[C@@H]2CSCCC(=O)N3CN(CN(C3)C(=O)CCSC[C@H](NC(=O)[C@H](CC(=O)O)NC(=O)[C@H](CCCCNC(=N)N)NC(=O)[C@H](C)N)C(=O)N3C[C@H](O)C[C@H]3C(=O)N[C@@H](CC(C)C)C(=O)N[C@@H](C(C)C)C(=O)N[C@@H](CC(N)=O)C(=O)N3CCC[C@H]3C(=O)N[C@@H](CC(C)C)C(=O)N2)C(=O)CCSC[C@@H](C(N)=O)NC(=O)[C@H](CCCCNC(=N)N)NC(=O)[C@H](Cc2c[nH]c3ccccc23)NC(=O)[C@@H](CC(=O)O)NC(=O)[C@@H]2CCCN2C(=O)[C@H](CC(N)=O)NC1=O` [BCY14047, A[HArg]DCi[HyP]LVNPLCiiLNP[dD]W[HArg]Ciii] (H-A[hArg]DC[Hyp]LVNPLCLNP[dD]W[hArg]C-NH2; linker 4-11-18 via TATA; N-terminus and C-terminus assumed) displayed a Ki of 3.88 nM.

In turn, `CC(C)C[C@@H]1NC(=O)[C@@H]2CSCCC(=O)N3CN(CN(C3)C(=O)CCSC[C@@H](C(=O)N[C@H](CCCCN)C(N)=O)NC(=O)[C@H]([C@@H](C)O)NC(=O)[C@H](Cc3c[nH]c4ccccc34)NC(=O)[C@@H](CC(=O)O)NC(=O)[C@@H]3CCCN3C(=O)[C@H](C(c3ccccc3)c3ccccc3)NC1=O)C(=O)CCSCCC(=O)N1C[C@H](O)C[C@H]1C(=O)N[C@@H](CC(C)C)C(=O)N[C@@H](C(C)C)C(=O)N[C@@H](CC(N)=O)C(=O)N1CCC[C@H]1C(=O)N[C@@H](CC(C)C)C(=O)N2` [BCY13129, [MerPro]i[HyP]LVNPLCiiL[3,3-DPA]P[dD]WTCiii[dK]] ([Mpa][Hyp]LVNPLCL[Dip]P[dD]WTC[dK]-NH2; linker 1-8-15 via TATA; C-terminus assumed) displayed a Ki of 1.88 nM.

Molecule `CC(C)C[C@@H]1NC(=O)[C@@H]2CSCCC(=O)N3CN(CN(C3)C(=O)CCSC[C@H](NC(=O)[C@H](CC(=O)O)NC(=O)[C@H](CCCCNC(=N)N)NC(=O)[C@H](C)N)C(=O)N3C[C@H](O)C[C@H]3C(=O)N[C@@H](CC(C)C)C(=O)N[C@@H](C(C)C)C(=O)N[C@@H](CC(N)=O)C(=O)N3CCC[C@H]3C(=O)N[C@@H](CC(C)C)C(=O)N2)C(=O)CCSC[C@@H](C(N)=O)NC(=O)[C@H](CCCCNC(=N)N)NC(=O)[C@H](Cc2c[nH]c3ccccc23)NC(=O)[C@@H](CC(=O)O)NC(=O)[C@@H]2CCCN2C(=O)[C@H](Cc2cccs2)NC1=O` [BCY13922, A[HArg]DCi[HyP]LVNPLCiiL[Thi]P[dD]W[HArg]Ciii] (H-A[hArg]DC[Hyp]LVNPLCL[2Thi]P[dD]W[hArg]C-NH2; linker 4-11-18 via TATA; N-terminus and C-terminus assumed) gave a Ki of 1.14 nM.

As for `CN[C@@H](C)C(=O)N[C@@H](CCCCNC(=N)N)C(=O)N[C@@H](CC(=O)O)C(=O)N[C@H]1CSCCC(=O)N2CN3CN(C2)C(=O)CCSC[C@H](NC(=O)[C@H](CC(C)C)NC(=O)[C@@H]2CCCN2C(=O)[C@H](CC(N)=O)NC(=O)[C@H](C(C)C)NC(=O)[C@H](CC(C)C)NC(=O)[C@@H]2C[C@@H](O)CN2C1=O)C(=O)N[C@@H](CC(C)C)C(=O)N[C@@H](CCC(=O)O)C(=O)N1CCC[C@H]1C(=O)N[C@H](CC(=O)O)C(=O)N[C@@H](Cc1c[nH]c2ccccc12)C(=O)N[C@@H]([C@@H](C)O)C(=O)N[C@H](C(N)=O)CSCCC3=O` [BCY13122, [NMeAla]-[HArg]-D-Ci[HyP]LVNPLCiiLEP[dD]WTCiii] (H-[NMeA][hArg]DC[Hyp]LVNPLCLEP[dD]WTC-NH2; linker 4-11-18 via TATA; N-terminus and C-terminus assumed), the Ki was 7.8 nM. Compared with the last molecule, the Ki is about 6.8-fold higher.

The molecule `CC(C)C[C@@H]1NC(=O)[C@@H]2CSCCC(=O)N3CN(CN(C3)C(=O)CCSC[C@H](NC(=O)[C@H](CC(=O)O)NC(=O)[C@H](CCC(=O)O)NC(=O)[C@@H](C)N)C(=O)N3C[C@H](O)C[C@H]3C(=O)N[C@@H](CC(C)C)C(=O)N[C@@H](C(C)C)C(=O)N[C@@H](CC(N)=O)C(=O)N3CCC[C@H]3C(=O)N[C@@H](CC(C)C)C(=O)N2)C(=O)CCSC[C@@H](C(N)=O)NC(=O)[C@H]([C@@H](C)O)NC(=O)[C@H](Cc2c[nH]c3ccccc23)NC(=O)[C@@H](CC(=O)O)NC(=O)[C@@H]2CCCN2C(=O)[C@H](CCC(=O)O)NC1=O` [BCY13126, [dA]-ED-Ci[HyP]LVNPLCiiLEP[dD]WTCiii] (H-[dA]EDC[Hyp]LVNPLCLEP[dD]WTC-NH2; linker 4-11-18 via TATA; N-terminus and C-terminus assumed) displayed an inhibitory constant (Ki) of 25.3 nM.

The molecule `CC(C)C[C@@H]1NC(=O)[C@@H]2CSCCC(=O)N3CN(CN(C3)C(=O)CCSC[C@H](NC(=O)[C@H](CC(=O)O)NC(=O)[C@H](CCCCNC(=N)N)NC(=O)[C@H](C)N)C(=O)N3C[C@H](O)C[C@H]3C(=O)N[C@@H](CC(C)C)C(=O)N[C@@H](C(C)C)C(=O)N[C@@H](CC(N)=O)C(=O)N3CCC[C@H]3C(=O)N[C@@H](CC(C)C)C(=O)N2)C(=O)CCSC[C@@H](C(N)=O)NC(=O)[C@H](CCCCNC(=N)N)NC(=O)[C@H](Cc2c[nH]c3ccccc23)NC(=O)[C@@H](CC(=O)O)NC(=O)[C@@H]2CCCN2C(=O)[C@H](Cc2ccccc2)NC1=O` [BCY13920, A[HArg]DCi[HyP]LVNPLCiiLFP[dD]W[HArg]Ciii] (H-A[hArg]DC[Hyp]LVNPLCLFP[dD]W[hArg]C-NH2; linker 4-11-18 via TATA; N-terminus and C-terminus assumed) gave a Ki of 0.641 nM.

Regarding `CC(C)C[C@@H]1NC(=O)[C@@H]2CSCCC(=O)N3CN(CN(C3)C(=O)CCSC[C@H](N)C(=O)N3C[C@H](O)C[C@H]3C(=O)N[C@@H](CC(C)C)C(=O)N[C@@H](C(C)C)C(=O)N[C@@H](CC(N)=O)C(=O)N3CCC[C@H]3C(=O)N[C@@H](CC(C)C)C(=O)N2)C(=O)CCSC[C@@H](C(=O)N[C@H](C)C(N)=O)NC(=O)[C@H]([C@@H](C)O)NC(=O)[C@H](Cc2c[nH]c3ccccc23)NC(=O)[C@@H](CC(=O)O)NC(=O)[C@@H]2CCCN2C(=O)[C@H](CCC(=O)O)NC1=O` [BCY12861, Ci[HyP]LVNPLCiiLEP[dD]WTCiii[dA]] (H-C[Hyp]LVNPLCLEP[dD]WTC[dA]-NH2; linker 1-8-15 via TATA; N-terminus and C-terminus assumed), the affinity, expressed as Ki, was 21.7 nM. Compared with the last molecule, the Ki is about 34-fold higher.

Consider `CC(C)C[C@@H]1NC(=O)[C@@H]2CSCCC(=O)N3CN(CN(C3)C(=O)CCSC[C@H](NC(=O)[C@H](CC(=O)O)NC(=O)[C@H](CCCCNC(=N)N)NC(=O)[C@H](C)N)C(=O)N3C[C@H](O)C[C@H]3C(=O)N[C@@H](CC(C)C)C(=O)N[C@@H](C(C)C)C(=O)N[C@@H](CC(N)=O)C(=O)N3CCC[C@H]3C(=O)N[C@@H](CC(C)C)C(=O)N2)C(=O)CCSC[C@@H](C(N)=O)NC(=O)[C@H](CCCCNC(=N)N)NC(=O)[C@H](Cc2c[nH]c3ccccc23)NC(=O)[C@@H](CC(=O)O)NC(=O)[C@@H]2CCCN2C(=O)[C@H](Cc2cccc3ccccc23)NC1=O` [BCY13117, A-[HArg]-D-Ci[HyP]LVNPLCiiL[1Nal]P[dD]W[HArg]Ciii] (H-A[hArg]DC[Hyp]LVNPLCL[1Nal]P[dD]W[hArg]C-NH2; linker 4-11-18 via TATA; N-terminus and C-terminus assumed), for which the affinity, expressed as Ki, was 1.12 nM.

`CC(C)C[C@@H]1NC(=O)[C@@H]2C[C@@H](O)CN2C(=O)[C@@H](NC(=O)[C@H](CC(=O)O)NC(=O)[C@H](CCCCNC(=N)N)NC(=O)[C@H](C)N)CSCCC(=O)N2CN3CN(C2)C(=O)CCSC[C@H](NC(=O)[C@H](CC(C)C)NC(=O)[C@@H]2CCCN2C(=O)[C@H](CC(N)=O)NC(=O)[C@H](C(C)C)NC1=O)C(=O)N[C@@H](CCCC(=O)O)C(=O)N[C@@H](Cc1c[nH]cn1)C(=O)N1CCC[C@H]1C(=O)N[C@H](CC(=O)O)C(=O)N[C@@H](Cc1c[nH]c2ccccc12)C(=O)N[C@@H](CCCCNC(=N)N)C(=O)N[C@H](C(N)=O)CSCCC3=O` [BCY13131, A-[HArg]-D-Ci[HyP]LVNPLCii[hGlu]HP[dD]W[HArg]Ciii] (H-A[hArg]DC[Hyp]LVNPLC[Aad]HP[dD]W[hArg]C-NH2; linker 4-11-18 via TATA; N-terminus and C-terminus assumed) came in with a Ki of 27.1 nM.

Molecule `CC(C)C[C@@H]1NC(=O)[C@@H]2CSCCC(=O)N3CN(CN(C3)C(=O)CCSC[C@H](NC(=O)[C@H](CC(=O)O)NC(=O)[C@H](CCCCNC(=N)N)NC(=O)[C@@H](C)N)C(=O)N3C[C@H](O)C[C@H]3C(=O)N[C@@H](CC3CCC3)C(=O)N[C@@H](C(C)C)C(=O)N[C@@H](CC(N)=O)C(=O)N3CCC[C@H]3C(=O)N[C@@H](CC(C)C)C(=O)N2)C(=O)CCSC[C@@H](C(=O)N[C@H](C)C(N)=O)NC(=O)[C@H]([C@@H](C)O)NC(=O)[C@H](Cc2c[nH]c3ccccc23)NC(=O)[C@@H](CC(=O)O)NC(=O)[C@@H]2CCCN2C(=O)[C@H](CCC(=O)O)NC1=O` [BCY12864, [dA]-[HArg]-D-Ci[HyP][Cba]VNPLCiiLEP[dD]WTCiii-[dA]] (H-[dA][hArg]DC[Hyp][Cba]VNPLCLEP[dD]WTC[dA]-NH2; linker 4-11-18 via TATA; N-terminus and C-terminus assumed) returned an inhibitory constant (Ki) of 9.29 nM. This Ki is about 2.9-fold lower than that of the molecule before.

The molecule `CC(C)C[C@@H]1NC(=O)[C@@H]2CSCCC(=O)N3CN(CN(C3)C(=O)CCSC[C@H](NC(=O)[C@H](CC(=O)O)NC(=O)[C@H](CCCCNC(=N)N)NC(=O)[C@H](C)N)C(=O)N3C[C@H](O)C[C@H]3C(=O)N[C@@H](CC(C)C)C(=O)N[C@@H](C(C)C)C(=O)N[C@@H](CC(N)=O)C(=O)N3CCC[C@H]3C(=O)N[C@@H](CC(C)C)C(=O)N2)C(=O)CCSC[C@@H](C(N)=O)NC(=O)[C@H](CCCCNC(=N)N)NC(=O)[C@H](Cc2c[nH]c3ccccc23)NC(=O)[C@@H](CC(=O)O)NC(=O)[C@@H]2CCCN2C(=O)[C@H](CCCC(=O)O)NC1=O` [BCY13132, A-[HArg]-D-Ci[HyP]LVNPLCiiL[hGlu]P[dD]W[HArg]Ciii] (H-A[hArg]DC[Hyp]LVNPLCL[Aad]P[dD]W[hArg]C-NH2; linker 4-11-18 via TATA; N-terminus and C-terminus assumed) showed a Ki of 7.08 nM.

Regarding `CC(C)C[C@@H]1NC(=O)[C@@H]2CSCCC(=O)N3CN(CN(C3)C(=O)CCSC[C@H](NC(=O)[C@H](CC(=O)O)NC(=O)[C@H](CCCCNC(=N)N)NC(=O)[C@H](C)N)C(=O)N3C[C@H](O)C[C@H]3C(=O)N[C@@H](CC(C)C)C(=O)N[C@@H](C(C)C)C(=O)N[C@@H](CC(N)=O)C(=O)N3CCC[C@H]3C(=O)N[C@@H](CC(C)C)C(=O)N2)C(=O)CCSC[C@@H](C(N)=O)NC(=O)[C@H](CCCCNC(=N)N)NC(=O)[C@H](Cc2c[nH]c3ccccc23)NC(=O)[C@@H](CC(=O)O)NC(=O)[C@@H]2CCCN2C(=O)[C@H](CCC(=O)O)NC1=O` [BCY12854, A-[HArg]-D-Ci[HyP]LVNPLCiiLEP[dD]W[HArg]Ciii] (H-A[hArg]DC[Hyp]LVNPLCLEP[dD]W[hArg]C-NH2; linker 4-11-18 via TATA; N-terminus and C-terminus assumed), the affinity corresponds to a Ki of 9.34 nM.
